The source of these data is PMC11627005 (Febs Letters, 2024).

Broadly, the IC50 is the concentration that inhibits the measured activity by half. A low value points to greater potency in that assay.

Holding throughout (type): biochemical
The target in assay [1] is E. coli respiratory complex I (proton-pumping NADH:ubiquinone oxidoreductase, NuoA to NuoN) (Escherichia coli, UniProt P0AFC7+P0AFD4+P33599, P33599:D325N).
Assay [2] deals with E. coli respiratory complex I (proton-pumping NADH:ubiquinone oxidoreductase, NuoA to NuoN) (Escherichia coli, UniProt P0AFC7+P0AFD4+P33599, P33599:D325E).
In assay [3] the target is E. coli respiratory complex I (proton-pumping NADH:ubiquinone oxidoreductase, NuoA to NuoN) (Escherichia coli, UniProt P0AFC7+P0AFD4+P33599, P33599:D325A).
The target in assay [4] is E. coli respiratory complex I (proton-pumping NADH:ubiquinone oxidoreductase, NuoA to NuoN) (Escherichia coli, UniProt P0AFC7+P0AFD4+P33599, P33599:D325Q).
For assay [5], the target named is E. coli respiratory complex I (proton-pumping NADH:ubiquinone oxidoreductase, NuoA to NuoN) (Escherichia coli, UniProt P0AFC7+P0AFD4+P33599).

In the case of `C/C=C(\C)[C@H](O)[C@H](C)/C=C(C)/C=C/C/C(C)=C/Cc1nc(OC)c(OC)c(O)c1C` [piericidin A], the IC50 turned out to be 17.4 ± 0.6 µM in assay [1]; 6.2 ± 0.5 µM in assay [2]; 9.3 ± 0.8 µM in assay [3]; 16.9 ± 1.2 µM in assay [4]; 3.5 ± 0.2 µM in assay [5].
